Test results from ChEMBL document CHEMBL1147327, “Developments in marine natural products. Receptor-specific bioactive compounds” (1993).
Calls of active or inactive are those of the source. No cut-off for these calls is given here.

Key:
[1] = system: Candida albicans; assay: Antifungal activity against Candida albicans at 0.5 ug/disk by agar disk diffusion assay; type: functional; conditions: read-out: IZ
[2] = system: Candida albicans; assay: Antifungal activity against Candida albicans by agar disk diffusion assay; type: functional, organism-based
[3] = system: Candida albicans; assay: Antifungal activity against Candida albicans at 10 ug in presence of 20 ppm exogenous ergosterol; type: functional
[4] = system: Candida albicans; assay: Antifungal activity against Candida albicans in presence of 100 ppm exogenous ergosterol by agar disk diffusion assay; type: functional, organism-based

| SMILES | zone of inhibition at 0.5 µg/disc [1] [mm] | also measured |
| --- | --- | --- |
| CCCCCCCCCCCCCC(=O)O[C@@H](c1cnco1)c1nc([C@@H](O)C[C@@H](O)[C@@H](O)[C@@H](C)O)co1 [BENGAZOLE A] | 9 | – |
| CCCCCCCCCCCCCCC(=O)O[C@@H](c1cnco1)c1nc([C@@H](O)C[C@@H](O)[C@@H](O)[C@@H](C)O)co1 [BENGAZOLE E] | 9 | – |
| COC(=O)[C@H](C)[C@@H]1CC[C@](C)([C@@H]2C[C@@]3(C)[C@H](C)C[C@H]4C=C(C)CC[C@H]4[C@@]3(C)O2)OO1 | – | Activity [2]: inactive |
| CC(C)CCCCCCCCCCCC(=O)O[C@@H](c1cnco1)c1nc([C@@H](O)C[C@@H](O)[C@@H](O)[C@@H](C)O)co1 [BENGAZOLE B] | 9 | Activity [3]: 50% |
| CCC(C)CCCCCCCCCCC(=O)O[C@@H](c1cnco1)c1nc([C@H](O)C[C@@H](O)[C@@H](O)[C@@H](C)O)co1 (stereo partly specified) [BENGAZOLE B1] | 9 | – |
| CC(C)CCCCCCCCCCC(=O)O[C@@H](c1cnco1)c1nc([C@@H](O)C[C@@H](O)[C@@H](O)[C@@H](C)O)co1 [BENGAZOLE D] | 9 | – |
| CCCCCCCCCCCCC(=O)O[C@@H](c1cnco1)c1nc([C@@H](O)C[C@@H](O)[C@@H](O)[C@@H](C)O)co1 [BENGAZOLE C] | 9 | – |
| CCCCCCCCCCCCCCCC(=O)O[C@@H](c1cnco1)c1nc([C@@H](O)C[C@@H](O)[C@@H](O)[C@@H](C)O)co1 [BENGAZOLE G] | 9 | – |
| CCC(C)CCCCCCCCCCCC(=O)O[C@@H](c1cnco1)c1nc([C@@H](O)C[C@@H](O)[C@@H](O)[C@@H](C)O)co1 (stereo partly specified) [BENGAZOLE F] | 9 | – |
| CC1=C[C@@H]2C[C@@H](C)[C@]3(C)C[C@@H]([C@@]4(C)CC[C@@H]([C@@H](C)C(=O)O)OO4)O[C@]3(C)[C@@H]2CC1 | – | Activity [4]: Active |
